Patent US8895504B2, “Amylin derivatives” (priority 2008, dated 2014)
*1 amine or outer side, *2 acyl side, *3 side chain or, on linkers, in order; H or OH if unused. Where a SMILES comes first, the peptide text is derived from it. Bridges are numbered along the chain shown (N, C = ends). The star is where a group is joined. C20 diacid = O=C(O)CCCCCCCCCCCCCCCCCCC(=O)*; C18 diacid = O=C(O)CCCCCCCCCCCCCCCCC(=O)*; γGlu = O=C(O)[C@H](CCC(=O)[*:2])N[*:1]

Target: T1, Amylin 3(a) receptor (human calcitonin receptor (CTa) and RAMP-3) (Homo sapiens, UniProt O60896+P30988)
T1 construct: expressed in transfected cells; host or cells: BHK570 cells, stably transfected with a CRE-luciferase reporter
T1 sequence (O60896 24-148): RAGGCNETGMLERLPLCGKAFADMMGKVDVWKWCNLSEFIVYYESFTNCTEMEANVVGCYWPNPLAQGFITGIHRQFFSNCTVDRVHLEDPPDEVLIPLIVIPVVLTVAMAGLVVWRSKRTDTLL
T1 sequence (P30988 25-474): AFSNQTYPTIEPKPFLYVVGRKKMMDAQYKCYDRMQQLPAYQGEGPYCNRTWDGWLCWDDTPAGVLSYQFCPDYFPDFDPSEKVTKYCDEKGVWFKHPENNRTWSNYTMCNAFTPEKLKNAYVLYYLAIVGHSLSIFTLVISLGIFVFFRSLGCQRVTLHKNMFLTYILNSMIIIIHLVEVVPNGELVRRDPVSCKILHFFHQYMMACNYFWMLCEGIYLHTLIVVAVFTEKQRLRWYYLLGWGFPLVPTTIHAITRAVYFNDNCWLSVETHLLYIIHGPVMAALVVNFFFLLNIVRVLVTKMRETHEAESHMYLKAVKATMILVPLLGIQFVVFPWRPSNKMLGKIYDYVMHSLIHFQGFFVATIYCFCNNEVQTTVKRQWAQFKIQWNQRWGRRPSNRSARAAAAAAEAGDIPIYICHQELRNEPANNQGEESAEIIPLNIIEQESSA
Assay: Luciferase assay (III), BHK Amylin 3(a)//CRE-luc cells
Assay type: cell-based
Conditions: BHK cells with Amylin 3(a) receptor and CRE luciferase reporter, 4 hours incubation; read-out: Potency Luciferase
In short: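 BHK570 cells stably expressing CTa, RAMP-3 and a CRE-luciferase reporter, seeded at about 20,000 cells/well and grown overnight. Cells were exposed to standard or sample for 4 h at 37° C in phenol red-free DMEM with 10% FBS and 10 mM Hepes, pH 7,4. Luminescence was read after 30 min LucLite at room temperature.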

EC50 | SMILES
0.2 nM | CC[C@H](C)[C@H](NC(=O)[C@@H]1CCCN1C(=O)CNC(=O)[C@H](Cc1ccccc1)NC(=O)[C@H](CC(N)=O)NC(=O)[C@H](CC(N)=O)NC(=O)[C@H](CO)NC(=O)[C@H](CO)NC(=O)[C@H](Cc1c[nH]cn1)NC(=O)[C@H](CCCNC(=N)N)NC(=O)[C@H](CC(C)C)NC(=O)[C@H](Cc1ccccc1)NC(=O)[C@H](CC(N)=O)NC(=O)[C@H](C)NC(=O)[C@H](CC(C)C)NC(=O)[C@H](CCCNC(=N)N)NC(=O)[C@H](CCC(N)=O)NC(=O)[C@@H](NC(=O)[C@H](C)NC(=O)[C@@H]1CSSC[C@H](NC(=O)CC[C@H](NC(=O)CCCCCCCCCCCCCCCCCCC(=O)O)C(=O)O)C(=O)N[C@@H](CC(N)=O)C(=O)N[C@@H]([C@@H](C)O)C(=O)N[C@@H](C)C(=O)N[C@@H]([C@@H](C)O)C(=O)N1)[C@@H](C)O)C(=O)N[C@@H](CC(C)C)C(=O)N1CCC[C@H]1C(=O)N1CCC[C@H]1C(=O)N[C@H](C(=O)N[C@@H](CC(N)=O)C(=O)N[C@H](C(=O)NCC(=O)N[C@@H](CO)C(=O)N[C@@H](CC(N)=O)C(=O)N[C@H](C(=O)N[C@@H](Cc1ccc(O)cc1)C(N)=O)[C@@H](C)O)C(C)C)[C@@H](C)O [Example 14, N-alpha-[(S)-4-Carboxy-4-(19-carboxynonadecanoylamino)butyryl]-[Arg17]-pramlintide (2-37)] ({C20 diacid-γGlu}-CNTATCATQRLANFLRHSSNNFGPILPPTNVGSNTY-NH2; disulfide 1-6)
0.05 nM | CC[C@H](C)[C@H](NC(=O)[C@@H]1CCCN1C(=O)CNC(=O)[C@H](Cc1ccccc1)NC(=O)[C@H](CC(N)=O)NC(=O)[C@H](CC(N)=O)NC(=O)[C@H](CO)NC(=O)[C@H](CO)NC(=O)[C@H](Cc1c[nH]cn1)NC(=O)[C@H](Cc1c[nH]cn1)NC(=O)[C@H](CC(C)C)NC(=O)[C@H](Cc1ccccc1)NC(=O)[C@H](CC(N)=O)NC(=O)[C@H](C)NC(=O)[C@H](CC(C)C)NC(=O)[C@H](CCCNC(=N)N)NC(=O)[C@H](CCC(N)=O)NC(=O)[C@@H](NC(=O)[C@H](C)NC(=O)[C@@H]1CSSC[C@H](NC(=O)[C@H](Cc2c[nH]cn2)NC(=O)[C@H](Cc2c[nH]cn2)NC(=O)[C@H](Cc2c[nH]cn2)NC(=O)CC[C@H](NC(=O)CCCCCCCCCCCCCCCCC(=O)O)C(=O)O)C(=O)N[C@@H](CC(N)=O)C(=O)N[C@@H]([C@@H](C)O)C(=O)N[C@@H](C)C(=O)N[C@@H]([C@@H](C)O)C(=O)N1)[C@@H](C)O)C(=O)N[C@@H](CC(C)C)C(=O)N1CCC[C@H]1C(=O)N1CCC[C@H]1C(=O)N[C@H](C(=O)N[C@@H](CC(N)=O)C(=O)N[C@H](C(=O)NCC(=O)N[C@@H](CO)C(=O)N[C@@H](CC(N)=O)C(=O)N[C@H](C(=O)N[C@@H](Cc1ccc(O)cc1)C(N)=O)[C@@H](C)O)C(C)C)[C@@H](C)O [Example 60, N-alpha-[(S)-4-Carboxy-4-(17-carboxyheptadecanoylamino)butyryl]-His-His-[His1,His17]-pramlintide] ({C18 diacid-γGlu}-HHHCNTATCATQRLANFLHHSSNNFGPILPPTNVGSNTY-NH2; disulfide 4-9)
0.2 nM | CC[C@H](C)[C@H](NC(=O)[C@@H]1CCCN1C(=O)CNC(=O)[C@H](Cc1ccccc1)NC(=O)[C@H](CC(N)=O)NC(=O)[C@H](CC(N)=O)NC(=O)[C@H](CO)NC(=O)[C@H](CO)NC(=O)[C@H](Cc1c[nH]cn1)NC(=O)[C@H](Cc1c[nH]cn1)NC(=O)[C@H](CC(C)C)NC(=O)[C@H](Cc1ccccc1)NC(=O)[C@H](CC(N)=O)NC(=O)[C@H](C)NC(=O)[C@H](CC(C)C)NC(=O)[C@H](CCCNC(=N)N)NC(=O)[C@H](CCC(N)=O)NC(=O)[C@@H](NC(=O)[C@H](C)NC(=O)[C@@H]1CSSC[C@H](NC(=O)[C@H](CCC(=O)O)NC(=O)CC[C@H](NC(=O)CCCCCCCCCCCCCCCCCCC(=O)O)C(=O)O)C(=O)N[C@@H](CC(N)=O)C(=O)N[C@@H]([C@@H](C)O)C(=O)N[C@@H](C)C(=O)N[C@@H]([C@@H](C)O)C(=O)N1)[C@@H](C)O)C(=O)N[C@@H](CC(C)C)C(=O)N1CCC[C@H]1C(=O)N1CCC[C@H]1C(=O)N[C@H](C(=O)N[C@@H](CC(N)=O)C(=O)N[C@H](C(=O)NCC(=O)N[C@@H](CO)C(=O)N[C@@H](CC(N)=O)C(=O)N[C@H](C(=O)N[C@@H](Cc1ccc(O)cc1)C(N)=O)[C@@H](C)O)C(C)C)[C@@H](C)O [Example 51, N-alpha-[(S)-4-Carboxy-4-(19-carboxynonadecanoylamino)butyryl]-[Glu 1,His17]-pramlintide] ({C20 diacid-γGlu}-ECNTATCATQRLANFLHHSSNNFGPILPPTNVGSNTY-NH2; disulfide 2-7)
0.1 nM | CC(C)C[C@H](NC(=O)[C@H](CCCNC(=N)N)NC(=O)[C@H](CCC(N)=O)NC(=O)[C@@H](NC(=O)[C@H](C)NC(=O)[C@@H]1CSSC[C@H](NC(=O)[C@H](CCC(=O)O)NC(=O)[C@H](CCCNC(=N)N)NC(=O)[C@H](CCC(=O)O)NC(=O)CC[C@H](NC(=O)CCCCCCCCCCCCCCCCCCC(=O)O)C(=O)O)C(=O)N[C@@H](CC(N)=O)C(=O)N[C@@H]([C@@H](C)O)C(=O)N[C@@H](C)C(=O)N[C@@H]([C@@H](C)O)C(=O)N1)[C@@H](C)O)C(=O)N[C@@H](C)C(=O)N[C@@H](CC(N)=O)C(=O)N[C@@H](Cc1ccccc1)C(=O)N[C@@H](CC(C)C)C(=O)N[C@@H](Cc1c[nH]cn1)C(=O)N[C@@H](Cc1c[nH]cn1)C(=O)N[C@@H](CO)C(=O)N[C@@H](CO)C(=O)N[C@@H](CCC(N)=O)C(=O)N[C@@H](CC(N)=O)C(=O)N[C@@H](Cc1ccccc1)C(=O)NCC(=O)N[C@@H](C)C(=O)N1CCC[C@H]1C(=O)N[C@@H](CC(C)C)C(=O)N[C@@H](CO)C(=O)N[C@@H](CO)C(=O)N[C@H](C(=O)N[C@@H](CC(N)=O)C(=O)N[C@H](C(=O)NCC(=O)N[C@@H](CO)C(=O)N[C@@H](CC(N)=O)C(=O)N[C@H](C(=O)N[C@@H](Cc1ccc(O)cc1)C(N)=O)[C@@H](C)O)C(C)C)[C@@H](C)O [Example 41, N-alpha-[(S)-4-Carboxy-4-(19-carboxynonadecanoylamino)butyryl]-Glu-Arg-[Glu1,His17,Gln21,Ala25,Pro26,Ser28,Ser29]-pramlintide] ({C20 diacid-γGlu}-ERECNTATCATQRLANFLHHSSQNFGAPLSSTNVGSNTY-NH2; disulfide 4-9)
0.1 nM | CC[C@H](C)[C@H](NC(=O)[C@@H]1CCCN1C(=O)CNC(=O)[C@H](Cc1ccccc1)NC(=O)[C@H](CC(N)=O)NC(=O)[C@H](CC(N)=O)NC(=O)[C@H](CO)NC(=O)[C@H](CO)NC(=O)[C@H](Cc1c[nH]cn1)NC(=O)CNC(=O)[C@H](CC(C)C)NC(=O)[C@H](Cc1ccccc1)NC(=O)[C@H](CC(N)=O)NC(=O)[C@H](C)NC(=O)[C@H](CC(C)C)NC(=O)[C@H](CCCNC(=N)N)NC(=O)[C@H](CCC(N)=O)NC(=O)[C@@H](NC(=O)[C@H](C)NC(=O)[C@@H]1CSSC[C@H](NC(=O)[C@H](CCCCN)NC(=O)[C@H](CCCNC(=N)N)NC(=O)CC[C@H](NC(=O)CCCCCCCCCCCCCCCCCCC(=O)O)C(=O)O)C(=O)N[C@@H](CC(N)=O)C(=O)N[C@@H]([C@@H](C)O)C(=O)N[C@@H](C)C(=O)N[C@@H]([C@@H](C)O)C(=O)N1)[C@@H](C)O)C(=O)N[C@@H](CC(C)C)C(=O)N1CCC[C@H]1C(=O)N1CCC[C@H]1C(=O)N[C@H](C(=O)N[C@@H](CC(N)=O)C(=O)N[C@H](C(=O)NCC(=O)N[C@@H](CO)C(=O)N[C@@H](CC(N)=O)C(=O)N[C@H](C(=O)N[C@@H](Cc1ccc(O)cc1)C(N)=O)[C@@H](C)O)C(C)C)[C@@H](C)O [Example 18, N-alpha-[(S)-4-Carboxy-4-(19-carboxynonadecanoylamino)butyryl]-Arg-[Gly17]-pramlintide] ({C20 diacid-γGlu}-RKCNTATCATQRLANFLGHSSNNFGPILPPTNVGSNTY-NH2; disulfide 3-8)
0.09 nM | CC[C@H](C)[C@H](NC(=O)[C@@H]1CCCN1C(=O)CNC(=O)[C@H](Cc1ccccc1)NC(=O)[C@H](CC(N)=O)NC(=O)[C@H](CC(N)=O)NC(=O)[C@H](CO)NC(=O)[C@H](CO)NC(=O)[C@H](Cc1c[nH]cn1)NC(=O)[C@H](Cc1c[nH]cn1)NC(=O)[C@H](CC(C)C)NC(=O)[C@H](Cc1ccccc1)NC(=O)[C@H](CC(N)=O)NC(=O)[C@H](C)NC(=O)[C@H](CC(C)C)NC(=O)[C@H](CCCNC(=N)N)NC(=O)[C@H](CCC(N)=O)NC(=O)[C@@H](NC(=O)[C@H](C)NC(=O)[C@@H]1CSSC[C@H](NC(=O)[C@H](CCCNC(=N)N)NC(=O)[C@H](Cc2c[nH]cn2)NC(=O)[C@H](Cc2c[nH]cn2)NC(=O)CC[C@H](NC(=O)CCCCCCCCCCCCCCCCCCC(=O)O)C(=O)O)C(=O)N[C@@H](CC(N)=O)C(=O)N[C@@H]([C@@H](C)O)C(=O)N[C@@H](C)C(=O)N[C@@H]([C@@H](C)O)C(=O)N1)[C@@H](C)O)C(=O)N[C@@H](CC(C)C)C(=O)N1CCC[C@H]1C(=O)N1CCC[C@H]1C(=O)N[C@H](C(=O)N[C@@H](CC(N)=O)C(=O)N[C@H](C(=O)NCC(=O)N[C@@H](CO)C(=O)N[C@@H](CC(N)=O)C(=O)N[C@H](C(=O)N[C@@H](Cc1ccc(O)cc1)C(N)=O)[C@@H](C)O)C(C)C)[C@@H](C)O [Example 71, N-alpha-[(S)-4-Carboxy-4-(19-carboxynonadecanoylamino)butyryl]-His-His-[Arg1,His17]-pramlintide] ({C20 diacid-γGlu}-HHRCNTATCATQRLANFLHHSSNNFGPILPPTNVGSNTY-NH2; disulfide 4-9)
